Results taken from article PMC6591177, “Small Molecule IL-36γ Antagonist as a Novel Therapeutic Approach for Plaque Psoriasis” (Scientific Reports, 2019).
“Also recorded” adds a separate entry of the source.

Experiments:
[1] = test system: human IL-36γ induced plasma CXCL1; test: hIL-36γ induced CXCL1 release in mouse plasma; assay type: in vivo; conditions: C57BL/6 mice, compounds 10, 30 and 100 mg/kg p.o.; antibody i.p.
Text: Female C57BL/6 mice (9–10 weeks old, 19–23 g) were purchased from Charles River Laboratories. All animal procedures were approved by AbbVie’s Institutional Animal Care and Use Committee (IACUC) and performed in accordance with the relevant IACUC guidelines and regulations. To examine engagement of human IL-36γ with antagonists under in vivo conditions, a mouse acute CXCL1 release assay was established which was similar to one previously reported. Plasma CXCL1 secretion was induced by subcutaneous injection of 2 μg human IL-36γ (in 100 μL PBS) into C57BL/6 mice. Blood was withdrawn via cardiac puncture 2 h after the challenge with IL-36γ. A-552 and A-553 were dosed at 10, 30 and 100 mg/kg p.o. 45 min before IL-36γ challenge. Anti-IL36R antibodies were dosed i.p. at 24 hours before IL-36γ challenge. Plasma CXCL1 levels were analyzed using MSD V-PLEX kit.

human IL-36α = molecular target: T1, human IL-36α (Homo sapiens, UniProt Q9UHA7); test: Thermal shift assay / affinity, human IL-36α; assay type: binding; conditions: thermal shift assay at 100 μM (Supplementary Fig. 4)
T1 construct: using recombinant truncated proteins
T1 sequence (Q9UHA7 6-158): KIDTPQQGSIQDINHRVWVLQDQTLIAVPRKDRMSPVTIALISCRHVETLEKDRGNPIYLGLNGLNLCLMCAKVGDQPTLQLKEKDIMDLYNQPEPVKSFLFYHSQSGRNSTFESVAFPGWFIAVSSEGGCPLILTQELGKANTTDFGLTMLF
Protocol: (§1) Thermal shift assays[30] were performed on a Roche LightCycler 480 instrument using Sypro Orange Dye (Invitrogen). Reactions consisted of 0.5–2 µM purified recombinant protein in PBS, pH 7.4, a 1/500 dilution of the stock Sypro Orange reagent, and 100 µM test compounds, resulting in a final DMSO concentration of 1%. The samples were heated from 20 °C to 95 °C at a rate of 0.25 °C per second.

[2] = test system: human IL-36γ evoked CXCL1 release from Human HaCaT cells; test: human IL-36γ evoked CXCL1 release, human HaCaT cells; assay type: cell-based; conditions: ± S.D.
Protocol: (§2) The immortalized human keratinocyte cell line HaCaT and mouse fibroblast NIH-3T3 cell line were maintained in culture in DMEM with 10% fetal bovine serum and 1% penicillin/streptomycin added (Sigma). Cells were seeded in 96-well tissue culture plates (Corning) at 25,000 cells per well and allowed to adhere and recover overnight at 37 °C in an incubator. Cells were rinsed with PBS (Sigma) and treated with cytokines diluted in 200 μL/well of the medium (DMEM with 0.5% FBS and 1% penicillin/streptomycin) as indicated. In inhibition mode, the agonist concentration used was at the EC80 for chemokine production and the cells were pre-treated with inhibitors for 30 min prior to adding the agonist. After 24 h of treatment, supernatants were collected and IL-8 and CXCL1[28] levels were assessed using a custom immunoassay (Meso Scale Discovery). EC50/IC50 values were estimated from a four-parameter logistic fit using Prism software (GraphPad).

human IL-36γ [3] = molecular target: T2, human IL-36γ (Homo sapiens, UniProt Q9NZH8); test: Isothermal titration calorimetry; assay type: binding; conditions: 25 °C, pH 7.5; read-out: KD (ITC)
T2 construct: His6-SUMO-human IL-36γ (18–169); His6-SUMO (N, cleaved yes); made in house; host or cells: E. coli BL21 (DE3)
T2 sequence (Q9NZH8 18-169): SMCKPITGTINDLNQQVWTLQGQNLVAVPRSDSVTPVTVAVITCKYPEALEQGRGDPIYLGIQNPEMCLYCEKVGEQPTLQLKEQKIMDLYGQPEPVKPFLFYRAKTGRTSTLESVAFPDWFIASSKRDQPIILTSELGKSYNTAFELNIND
Protocol: All experiments were carried out on a MicroCal^TM Auto-ITC200 at 25 °C in 50 mM HEPES (pH = 7.5), 150 mM NaCl, 0.5 mM TCEP, 2% DMSO. IL-36γ protein solution was buffer exchanged by gel filtration into the isothermal titration calorimetry (ITC) buffer and diluted to 40 µM. The titrations were conducted using an initial injection of 0.2 µL followed by 19 identical injections of 2 µL of 400 µM compound solution. Thermodynamic parameters were calculated using ∆G = ∆H − T∆S = −RTlnKB, where ∆G, ∆H and ∆S are the changes in free energy, enthalpy and entropy of binding respectively. A single binding site model was employed.

human IL-36γ [4] = molecular target: T2, human IL-36γ; test: Thermal shift assay, human IL-36γ; assay type: binding; conditions: 100 μM compound; read-out: increase of melting temperature of human IL-36γ
Protocol: as §1

[5] = test system: IL-36γ evoked CXCL1 release from Mouse NIH-3T3 cells; test: IL-36γ evoked CXCL1 release, mouse NIH-3T3 cells; assay type: cell-based; conditions: for IC50: NIH-3T3 cells, n = 4, read-out: IC50 attenuation of CXCL1 release induced by human IL-36γ
Protocol: as §2

[6] = test system: IL-1β evoked IL-8 release from HaCaT cells; test: IL-1β evoked IL-8 release assay in HaCaT cells; assay type: cell-based, human; conditions: agonist mode, n = 3
Protocol: as §2
The IL-8 release assays were miniaturized for HTS hit follow-up. Frozen aliquots of HaCaT cells were thawed, added to complete media, mixed, spun down, resuspended in fresh media, and dispensed using the Multidrop384 into black, clear-bottom 384 well plates at a final density of 4000 cells/well. […] Cell viability was assessed using Cell Titer-Glo (Promega) according to the manufacturers’ instructions.

[7] = molecular target: T3, human IL-36R/IL-1RAcP extracellular domain (ECD) knob-in-hole Fc (human, UniProt Q9HB29 20-335; Q9NPH3 21-367); test: AlphaScreen or HTRF; TR-FRET, competitive mode: unlabeled human IL-36γ or IL-36Ra titrated against 6 nM Alexa 488 human IL-36γ, receptor heterodimer 1.5 μg/mL, 6 nM Tb-anti-His antibody; Ki by the Cheng-Prusoff equation; conditions: both partners purified
T3 construct: human IL-36 receptor subunit (IL-36R), extracellular domain; human IL-1RAcP co-receptor subunit, extracellular domain; Both proteins were engineered with an Fc 'knob-in-hole' to force heterodimerisation; also called hIL-36R/IL-1RAcP ECD knob-in-hole Fc; human IL-36R/IL-1RAcP ECD Fc heterodimer; not shown: His tag (from the nickel column and the Tb-anti-His detection)
T3 sequence (looked up) 1: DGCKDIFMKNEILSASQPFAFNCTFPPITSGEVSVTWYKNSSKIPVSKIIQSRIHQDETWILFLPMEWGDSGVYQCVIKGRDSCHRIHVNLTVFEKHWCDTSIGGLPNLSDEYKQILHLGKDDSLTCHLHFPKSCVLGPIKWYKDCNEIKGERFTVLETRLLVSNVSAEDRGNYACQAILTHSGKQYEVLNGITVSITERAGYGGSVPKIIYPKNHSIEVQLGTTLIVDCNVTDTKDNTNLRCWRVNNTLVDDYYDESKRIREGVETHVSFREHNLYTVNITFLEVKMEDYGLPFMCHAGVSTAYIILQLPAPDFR
T3 sequence (looked up) 2: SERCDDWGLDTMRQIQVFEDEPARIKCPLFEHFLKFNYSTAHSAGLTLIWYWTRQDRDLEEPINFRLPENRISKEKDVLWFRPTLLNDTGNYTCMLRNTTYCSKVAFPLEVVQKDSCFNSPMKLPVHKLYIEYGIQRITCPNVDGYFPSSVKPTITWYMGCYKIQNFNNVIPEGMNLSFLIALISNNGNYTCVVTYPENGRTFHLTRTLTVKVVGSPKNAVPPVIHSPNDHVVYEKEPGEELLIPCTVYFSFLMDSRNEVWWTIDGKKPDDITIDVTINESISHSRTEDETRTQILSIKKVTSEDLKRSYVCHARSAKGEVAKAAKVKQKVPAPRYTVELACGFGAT

[8] = test system: 3D human skin equivalents; test: IL-36γ induced 3D skin equivalent model; assay type: cell-based; conditions: 0.3 μg/mL hIL-36γ; 10 μM A-552, 10 μg/mL antibody or IL-36Ra; three days
Protocol: Hematoxylin & eosin (H&E) staining and immunohistochemistry (IHC) were performed using a Leica ST5010 autostainer or Leica Bond RX automated immunostainer. Standardized IHC protocols were used for anti-loricrin staining (Abcam AB85679). Stained tissue slides were digitized for image analysis using a Perkin Elmer P250 whole slide digital pathology slide scanner with 20X objective and extended focus scanning parameters. For quantitative analysis, N = 3 raft samples were analyzed per condition for each stain using whole slide digital analysis software (Indica Labs HALO). Staining was normalized to the length of the raft sample analyzed.
3D skin equivalents (SOR-300-FT-CTR) comprised of human neonatal keratinocytes and fibroblasts were purchased from MatTek, equilibrated for one day in proprietary formulated media (SOR-300-FT-CTR-MM) and then treated as indicated. Treatment groups contained hIL-36γ at 300 ng/mL, 10 μM of A-552, 10 μg/mL anti-IL36R antibody, 10 μg/mL IL-36RA, or 10 μg/mL IgG isotype control either alone or in combination with hIL-36γ. Control skin equivalents were treated with media only. Skin equivalents were treated for three days, with media collected for cytokine release studies at day two and replaced with fresh treatment media. After three days the skin equivalents were either placed in 10% neutral buffered formalin solution (for histology) or frozen (for qRT-PCR).
To measure IL-6, IL-8 and CXCL1 release from 3D skin equivalents diluted sample media collected at day 2 of the treatment (see above) was used in conjunction with V-PLEX multiplex immunoassay for IL-6 and IL-8 and a U-PLEX immunoassay for CXCL1 (Meso Scale Discovery) according to the manufacturers’ protocols.
RNA from frozen 3D skin equivalents was isolated using miRNeasy Mini Kit (Qiagen) per the manufacturers’ instructions. For qRT-PCR determination a CFX384 Real-Time System C1000 Touch Thermocycler was used. […] Each transcript measured was presented as a fold change compared to control using the ∆∆CT method as RNA fold increase where RPLP0 was used as a housekeeping gene.

Molecule: COC(c1ccccc1)(c1ccccc1)[C@@H](Oc1nc(C)cc(-c2ccc(C)c(N)c2)n1)C(=O)O [Compound A-553]
- effect on hIL-36γ induced plasma CXCL1 release (in words) [1]: little effect; also recorded: no effect
- binding / affinity to human IL-36α (human IL-36α): do not bind
- Ki [2]: 3700 ± 2300 nM
- Kd (human IL-36γ [3]): 3000 ± 330 nM
- ΔTm at 100 µM (human IL-36γ [4]): 1.3 °C
- Ki ([5]; human IL-36γ evoked CXCL1 release, ± S.D.): 3700 ± 1700 nM

Molecule: IL-1β: human IL-1β cytokine used in the selectivity assay
- EC50 [6]: 0.0057 ± 0.0038 nM

B1: human IL-36γ (18–169) (ligand, UniProt Q9NZH8 18-169, looked up)
chain: T2 sequence (Q9NZH8 18-169)
notes: human IL-36γ, residues 18-169; also called hIL-36γ; unlabeled IL-36γ; source: E. coli BL21 (DE3), purified (nickel column, ULP1 cleavage, Superdex 75 gel filtration); not shown: His6, N-terminal, cleaved; SUMO, N-terminal, cleaved
- Ki [7]: 0.4 nM

B2: human IL-36Ra: recombinant soluble human IL-36 receptor antagonist (2–155) (protein)
chain: VLSGALCFRMKDSALKVLYLHNNQLLAGGLHAGKVIKGEEISVVPNRWLDASLSPVILGVQGGSQCLSCGVGQEPTLTLEPVNIMELYLGAKESKSFTFYRRDMGLTSSFESAAYPGWFLCTVPEADQPVRLTQLPENGGWNAPITDFYFQQCD
modifications: left off: His6, N-terminal, cleaved | SUMO, N-terminal, cleaved
- effect on hIL-36γ induced changes in morphology, gene expression and cytokine production [8]: fully attenuated
- IC50 [5]: 23 ± 10 nM

B3: mouse IL-36Ra: mouse IL-36 receptor antagonist protein (protein, UniProt Q9QYY1 2-156, looked up)
Interleukin-36 receptor …: MVLSGALCFRMKDSALKVLYLHNNQLLAGGLHAEKVIKGEEISVVPNRALDASLSPVILGVQGGSQCLSCGTEKGPILKLEPVNIMELYLGAKESKSFTFYRRDMGLTSSFESAAYPGWFLCTSPEADQPVRLTQIPEDPAWDAPITDFYFQQCD
- IC50 [5]: 19 ± 9 nM
